Among the data in patent US20250186408A1, “TREATMENT OF PHARMACORESISTANT EPILEPSY” (Katholieke Universiteit Leuven, priority 2021, published 2025) are IC50, Emax and EC50 values, retold here.

Experiment [1] has as its target T1, CHRM2 (Homo sapiens, UniProt P08172).
T1 sequence (P08172 1-466): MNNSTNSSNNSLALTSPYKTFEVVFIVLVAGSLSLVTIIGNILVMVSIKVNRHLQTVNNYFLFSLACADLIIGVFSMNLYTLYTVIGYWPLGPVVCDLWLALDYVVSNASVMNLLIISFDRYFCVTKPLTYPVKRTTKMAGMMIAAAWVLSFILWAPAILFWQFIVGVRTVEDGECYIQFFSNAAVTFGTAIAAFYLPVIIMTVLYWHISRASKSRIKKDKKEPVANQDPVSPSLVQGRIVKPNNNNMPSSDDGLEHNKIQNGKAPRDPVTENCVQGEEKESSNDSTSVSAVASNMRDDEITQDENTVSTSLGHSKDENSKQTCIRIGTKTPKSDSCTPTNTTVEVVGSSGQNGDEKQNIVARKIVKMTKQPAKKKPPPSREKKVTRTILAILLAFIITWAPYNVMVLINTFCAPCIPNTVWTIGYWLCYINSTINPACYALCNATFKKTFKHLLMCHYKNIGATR
Briefly: cAMP CHRM2 Antagonist. To be noted: for Emax: read-out: Max response.
Description: (§1) In vitro pharmacological profiling of compounds was done against 78 functional assays for 47 common off-targets (30) by Eurofins DiscoverX Corporation (Fremont, CA, USA) using their SAFETYscan E/IC50 ELECT service (Cat Ref 87-1003DR, Safety47 Panel Dose Response). […] Compounds were tested in a range of 10 concentrations, following a 3-fold serial dilution, starting from 10 μM.
cAMP Hunter cell lines were expanded from freezer stocks. Prior to testing, cells were seeded in a total volume of 20 μL into white walled 384-well microplates and incubated at 37° C. cAMP modulation was determined using the DiscoverX HitHunter cAMP XS+ assay. For Gs agonist determination, cells were incubated with sample to induce response. For Gi agonist determination, cells were incubated with sample in the presence of EC80 forskolin to induce response. For both conditions, media was aspirated from cells and replaced with 15 μL 2:1 HBSS/10 mM HEPES:cAMP XS+ Ab reagent. Intermediate dilution of sample stocks was performed to generate 4× sample in assay buffer (containing 4×EC80 forskolin in the case of antagonist determination). 5 μL of 4× sample was added to cells and incubated at 37° C. or room temperature (RT) for 30 or 60 min. Final assay vehicle concentration was 1%. For antagonist determination, cells were pre-incubated with sample followed by agonist challenge at the EC80 concentration. Media was aspirated from cells and replaced with 10 μL 1:1 HBSS/HEPES:cAMP XS+ Ab reagent. 5 μL of 4× compound was added to the cells and incubated at 37° C. or RT for 30 min. 5 μL of 4×EC80 agonist was added to the cells and incubated at 37° C. or RT for 30 or 60 min. For Gi coupled GPCRs, EC80 forskolin was included. […] Microplates were read following signal generation with a PerkinElmer Envision™ instrument for chemiluminescent signal detection. Compound activity was analyzed using CBIS data analysis suite (ChemInnovation, CA). For Gs agonist mode assays, percentage activity was calculated using the following equation:

Experiment [2] has as its target T2, HTR3A (Homo sapiens, UniProt P46098).
T2 sequence (P46098 24-478): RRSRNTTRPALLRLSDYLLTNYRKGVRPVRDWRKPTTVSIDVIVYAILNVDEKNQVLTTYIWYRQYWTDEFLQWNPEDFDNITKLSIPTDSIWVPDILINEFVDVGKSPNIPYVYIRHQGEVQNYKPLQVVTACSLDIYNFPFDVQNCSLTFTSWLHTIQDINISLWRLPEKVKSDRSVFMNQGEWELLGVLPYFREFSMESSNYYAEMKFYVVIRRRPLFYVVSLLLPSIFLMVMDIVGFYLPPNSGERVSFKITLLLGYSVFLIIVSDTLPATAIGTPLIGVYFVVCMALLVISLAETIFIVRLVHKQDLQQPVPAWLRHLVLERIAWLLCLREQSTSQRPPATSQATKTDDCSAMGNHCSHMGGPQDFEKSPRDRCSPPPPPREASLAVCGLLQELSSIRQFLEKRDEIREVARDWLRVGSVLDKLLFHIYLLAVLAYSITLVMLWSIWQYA
Briefly: Ion Channel HTR3A Blocker. The format is cell-based. The following applies: for Emax: Ion Channel HTR3A Blocker, read-out: Max response.

Experiment [3] concerns the target T3, PDE3A (Homo sapiens, UniProt Q14432).
T3 construct: purchased Signal Chem
Briefly: Enzymatic PDE3A Inhibitor. To be noted: for IC50: read-out: RC50, result type IC50; for Emax: read-out: Max response. The format is biochemical. The protocol: Enzyme preparations were sourced from various vendors-AChE (R&D Systems), COX1 and COX2 (BPS Bioscience), MAOA (Sigma), PDE3A and PDE4D2 (Signal Chem). AChE: enzyme and test compound were pre-incubated for 15 min at RT before substrate addition. Acetylthiocholine and DTNB were added and incubated at RT for 30 min. Signal was detected by measuring absorbance at 405 nm. COX1 and COX2: enzyme stocks were diluted in assay buffer (40 mM Tris-HCl, 1×PBS, 0.5 mM Phenol, 0.01% Tween 20 and 10 nM Hematin) and allowed to equilibrate with compounds at RT for 30 min (binding incubation). Arachidonic acid (1.7 μM) and Ampliflu Red (2.5 μM) were prepared and dispended into a reaction plate. Plates were read immediately on a fluorimeter with the emission detection at 590 nm and excitation wavelength 544 nm. MAOA: enzyme and test compound were pre-incubated for 15 min at 37° C. before substrate addition. The reaction was initiated by addition of kynuramine and incubated at 37° C. for 30 min. The reaction was terminated by addition of NaOH. The amount of 4-hydroquinoline formed was determined through spectrofluorometric readout with the emission detection at 380 nm and excitation wavelength 310 nm. PDE3A and PDE4D2: enzyme and test compound were pre-incubated for 15 min at RT before substrate addition. cAMP substrate (at a concentration equal to EC80) was added and incubated at RT for 30 min. Enzyme reaction was terminated by addition of 9 mM IBMX. Signal was detected using the HitHunter® cAMP detection kit. Microplates were transferred to a PerkinElmer Envision™ instrument and read out as described for each assay. […] For enzyme activity assays, percentage inhibition was calculated using the following equation: […]

Experiment [4] addresses HRH1 (Homo sapiens, UniProt P35367). The experiment is described as follows: Calcium Flux HRH1 Agonist. The format is cell-based. The following applies: for Emax: read-out: Max response. The method, then:
(≤0.2% DMSO concentration). Assays were performed in 1× dye loading buffer consisting of 1× Dye (DiscoverX, Calcium No Wash^PLUS kit, Catalog No. 90-0091), 1× Additive A and 2.5 mM Probenecid in HBSS/20 mM HEPES. Probenecid was prepared fresh. Prior to testing, media was aspirated from cells and replaced with 25 μL dye loading buffer. Cells were incubated for 45 min at 37° C. and then 20 min at RT. For agonist determination, 25 μL of 2× compound in HBSS/20 mM HEPES was added using a FLIPR Tetra (MDS). […] 25 μL of 2× sample was added and cells were incubated for 30 min at RT in the dark to equilibrate plate temperature. After incubation, antagonist determination was initiated by addition of 25 μL of 1× compound with 3×EC80 agonist using FLIPR. For both agonist and antagonist formats, activity was measure on a FLIPR Tetra (MDS). Calcium mobilization was monitored for 2 min with a 5 sec baseline read.
FLIPR read—Area under the curve, was calculated for the entire 2 min read.
(Calcium flux is commonly read through the fluorescence of an indicator in the cells.)

The target in experiment [5] is T4, HTR1A (Homo sapiens, UniProt P08908).
T4 sequence (P08908 1-422): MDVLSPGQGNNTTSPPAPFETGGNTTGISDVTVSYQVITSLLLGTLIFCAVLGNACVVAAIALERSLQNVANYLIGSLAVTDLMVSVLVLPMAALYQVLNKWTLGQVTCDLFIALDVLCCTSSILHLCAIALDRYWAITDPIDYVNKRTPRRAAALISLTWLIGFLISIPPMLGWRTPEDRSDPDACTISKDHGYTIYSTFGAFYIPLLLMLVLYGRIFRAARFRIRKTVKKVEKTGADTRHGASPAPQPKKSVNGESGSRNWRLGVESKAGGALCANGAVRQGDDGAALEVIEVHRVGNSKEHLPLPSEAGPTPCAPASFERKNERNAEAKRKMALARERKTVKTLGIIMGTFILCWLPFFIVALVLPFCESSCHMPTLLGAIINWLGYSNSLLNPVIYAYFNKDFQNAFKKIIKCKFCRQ
The experiment is described as follows: cAMP HTR1A Agonist. The following applies: for Emax: read-out: Max response.
Description: as §1
cAMP Hunter cell lines were expanded from freezer stocks. Prior to testing, cells were seeded in a total volume of 20 μL into white walled 384-well microplates and incubated at 37° C. cAMP modulation was determined using the DiscoverX HitHunter cAMP XS+ assay. For Gs agonist determination, cells were incubated with sample to induce response. For Gi agonist determination, cells were incubated with sample in the presence of EC80 forskolin to induce response. For both conditions, media was aspirated from cells and replaced with 15 μL 2:1 HBSS/10 mM HEPES:cAMP XS+ Ab reagent. Intermediate dilution of sample stocks was performed to generate 4× sample in assay buffer (containing 4×EC80 forskolin in the case of antagonist determination). 5 μL of 4× sample was added to cells and incubated at 37° C. or room temperature (RT) for 30 or 60 min. Final assay vehicle concentration was 1%. For antagonist determination, cells were pre-incubated with sample followed by agonist challenge at the EC80 concentration. Media was aspirated from cells and replaced with 10 μL 1:1 HBSS/HEPES:cAMP XS+ Ab reagent. 5 μL of 4× compound was added to the cells and incubated at 37° C. or RT for 30 min. 5 μL of 4×EC80 agonist was added to the cells and incubated at 37° C. or RT for 30 or 60 min. For Gi coupled GPCRs, EC80 forskolin was included. […] Microplates were read following signal generation with a PerkinElmer Envision™ instrument for chemiluminescent signal detection. Compound activity was analyzed using CBIS data analysis suite (ChemInnovation, CA).

Molecules are shown by their SMILES. Where two headings read alike, the source gives them in different places.

T3 sequence (Q14432 whole entry): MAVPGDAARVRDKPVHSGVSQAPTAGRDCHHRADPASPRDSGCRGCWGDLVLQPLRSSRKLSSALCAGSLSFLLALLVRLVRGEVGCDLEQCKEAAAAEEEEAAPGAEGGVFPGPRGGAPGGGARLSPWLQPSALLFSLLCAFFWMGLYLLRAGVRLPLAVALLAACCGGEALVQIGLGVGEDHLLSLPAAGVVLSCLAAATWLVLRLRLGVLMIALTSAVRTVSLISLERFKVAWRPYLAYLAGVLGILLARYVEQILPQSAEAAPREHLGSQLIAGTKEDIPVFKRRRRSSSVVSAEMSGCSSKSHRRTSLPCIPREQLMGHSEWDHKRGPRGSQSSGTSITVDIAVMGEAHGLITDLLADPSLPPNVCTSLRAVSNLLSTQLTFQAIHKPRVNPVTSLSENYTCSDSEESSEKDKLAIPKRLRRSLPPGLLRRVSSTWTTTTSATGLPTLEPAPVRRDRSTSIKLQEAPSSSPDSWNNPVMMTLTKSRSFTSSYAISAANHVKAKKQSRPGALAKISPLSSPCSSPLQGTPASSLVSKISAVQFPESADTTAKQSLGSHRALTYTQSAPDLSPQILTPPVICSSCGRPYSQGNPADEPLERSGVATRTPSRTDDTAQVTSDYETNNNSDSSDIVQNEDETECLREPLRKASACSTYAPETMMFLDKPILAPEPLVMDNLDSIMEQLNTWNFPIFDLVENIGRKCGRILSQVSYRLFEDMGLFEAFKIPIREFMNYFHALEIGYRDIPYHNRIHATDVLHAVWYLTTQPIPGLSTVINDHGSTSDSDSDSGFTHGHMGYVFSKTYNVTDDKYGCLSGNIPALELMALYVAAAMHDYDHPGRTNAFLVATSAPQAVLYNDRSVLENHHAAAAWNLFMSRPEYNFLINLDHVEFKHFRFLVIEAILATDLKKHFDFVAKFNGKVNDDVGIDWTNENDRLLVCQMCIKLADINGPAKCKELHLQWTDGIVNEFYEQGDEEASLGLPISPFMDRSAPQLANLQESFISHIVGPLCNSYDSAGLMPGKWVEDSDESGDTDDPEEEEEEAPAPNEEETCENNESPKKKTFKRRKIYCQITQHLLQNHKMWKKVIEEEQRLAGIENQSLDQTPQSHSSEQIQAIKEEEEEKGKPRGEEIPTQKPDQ
HRH1, sequence (P35367 whole entry): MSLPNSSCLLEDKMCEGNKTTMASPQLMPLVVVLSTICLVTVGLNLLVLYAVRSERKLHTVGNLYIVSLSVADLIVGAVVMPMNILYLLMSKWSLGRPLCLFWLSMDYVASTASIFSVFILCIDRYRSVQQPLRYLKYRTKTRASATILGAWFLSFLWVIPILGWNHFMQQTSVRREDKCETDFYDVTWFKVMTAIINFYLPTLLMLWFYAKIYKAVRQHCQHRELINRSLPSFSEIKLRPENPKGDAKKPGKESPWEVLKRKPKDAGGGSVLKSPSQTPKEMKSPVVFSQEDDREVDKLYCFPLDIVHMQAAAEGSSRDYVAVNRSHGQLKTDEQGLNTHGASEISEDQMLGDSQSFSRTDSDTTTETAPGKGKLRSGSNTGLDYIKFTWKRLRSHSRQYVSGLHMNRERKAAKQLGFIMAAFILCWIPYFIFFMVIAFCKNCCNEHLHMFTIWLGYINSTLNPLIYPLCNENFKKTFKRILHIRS

Consider `CC(C)(C)c1ccc(C#CC(O)c2ccccc2)cc1` (racemic) [Compound 3.3, rac-3-(4-(tert-butyl)phenyl)-1-phenylprop-2-yn-1-ol], for which the IC50 (usually the concentration that inhibits the measured activity by half) in experiment [1] was 4.3 µM; in experiment [2] it was > 10 µM; in experiment [3] (Enzymatic PDE3A Inhibitor), > 10 µM. Further, the Emax worked out at 90.1% in experiment [1]; 50.1% in experiment [2]; 0.6% in experiment [3]; 0% in experiment [4]; 0% in experiment [5]. For the same compound, the EC50 in experiment [4] and in experiment [5] was > 10 µM each time.
`Clc1cccc(C#Cc2n[nH]c3ncccc23)c1` [Compound 10.1, 3-((3-chlorophenyl)ethynyl)-1H-pyrazolo[3,4-b]pyridine]: the IC50 in experiment [1], in experiment [2] and in experiment [3] (Enzymatic PDE3A Inhibitor) was > 10 µM each time. In addition, the Emax in experiment [1] stood at 0%; in experiment [2], 19.7%; in experiment [3] (Enzymatic PDE3A Inhibitor), 0.1%; in experiment [4] (Calcium Flux HRH1 Agonist) it was 0%; in experiment [5], 9.1%. Also, the half-maximal effective concentration (EC50) (usually the concentration needed to bring the measured effect to its halfway point) in experiment [4] (Calcium Flux HRH1 Agonist, read-out: RC50, result type EC50) is > 10 µM; in experiment [5], > 10 µM.
